These results are taken from patent publication US8871760B2, “[1,2,4]triazolo[3,4-C][1,4]oxazines as P2X7 modulators” (Roche Palo Alto LLC, priority 2009, dated 2014).

The assay has as its target T1, human P2X7 (UniProt Q99572).
T1 sequence (Q99572 1-595): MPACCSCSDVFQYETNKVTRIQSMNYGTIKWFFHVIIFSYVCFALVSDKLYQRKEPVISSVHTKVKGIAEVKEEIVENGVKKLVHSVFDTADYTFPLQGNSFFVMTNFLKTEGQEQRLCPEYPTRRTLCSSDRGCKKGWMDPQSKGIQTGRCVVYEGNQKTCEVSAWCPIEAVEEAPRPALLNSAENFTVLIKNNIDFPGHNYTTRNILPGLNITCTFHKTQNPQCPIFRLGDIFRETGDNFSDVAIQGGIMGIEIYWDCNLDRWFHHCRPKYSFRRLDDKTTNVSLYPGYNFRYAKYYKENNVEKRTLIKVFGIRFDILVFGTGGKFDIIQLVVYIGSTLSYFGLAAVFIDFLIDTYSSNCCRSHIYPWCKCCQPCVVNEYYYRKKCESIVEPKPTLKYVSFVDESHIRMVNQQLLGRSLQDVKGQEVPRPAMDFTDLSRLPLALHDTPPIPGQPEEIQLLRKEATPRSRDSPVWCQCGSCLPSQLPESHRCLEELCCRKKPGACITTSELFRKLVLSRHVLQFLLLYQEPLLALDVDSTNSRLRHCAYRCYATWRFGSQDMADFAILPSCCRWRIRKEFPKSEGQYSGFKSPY
In words: Intracellular Calcium Flux (FLIPR) Assay. The assay is classed as cell-based. The procedure:
Intracellular Calcium Flux (FLIPR) Assay
Compound and Reagent Preparation
Stock solutions of compounds were prepared from powders as a 10 mM DMSO stock solution. These solutions were stored at RT during the two week period of these experiments to prevent freeze-thaw of the DMSO stocks. The DMSO stocks were added to the appropriate assay buffer at a concentration of 10 μM, and then diluted serially to the final concentrations that were tested. No observable precipitate was formed at any time during this process. The aqueous solutions of compounds as well as ATP (Sigma A7699) and BzATP (Sigma B6396) were prepared fresh for each day of experiment.
1321N1 cells stably expressing the full length human P2X7 gene (1321N1-hP2X7) and HEK293 cells stably expressing the full length rat P2X7 gene (HEK293-rP2X7) were obtained from the Roche Cell Culture Facility. 1321N1-hP2X7 cells were grown in Dulbecco's Modified Eagle's Medium (DMEM) high glucose supplemented with 10% FBS and […] G418. HEK293-rP2X7 cells were grown in DMEM/F-12 supplemented with 10% FBS, 1 mM CaCl2, 2 mM MgCl2, 2 mM L-Glutamine and […] G418. Cells were split such that they never became >70% confluent.
Intracellular Calcium Flux (FLIPR)
On the day prior to the experiment, 1321N1-hP2X7 or HEK293-rP2X7 cells were released into suspension with calcium-free PBS+Versene and washed by centrifugation with calcium-free PBS to remove the Versene. Cells were resuspended in growth medium at a density of 2.5×10^5 cells/mL and seeded into black walled, clear bottom 96 well plates (50,000 cells/well) approximately 18 hr prior to intracellular calcium flux experiments.
On the day of the experiment, plates were washed with FLIPR buffer (calcium- and magnesium-free Hank's Balanced Salt Solution (HBSS) supplemented with 10 mM Hepes, 2.5 mM probenecid and 2 mM calcium chloride) using a BIO-TEK 96 channel plate washer and incubated with […] fluo-3 dye at 37° C. for one hr. The dye was then removed by plate washing and the cells were allowed to equilibrate for 20 min at room temperature with antagonist or vehicle (FLIPR buffer). Agonist (100 μM BzATP final concentration for hP2X7; 5 μM BzATP final concentration or rP2X7) was added online with the FLIPR and fluorescence measurements made at 1 sec intervals for 60 sec followed by 3 sec intervals for a further 4 min (5 min total). A final addition of 5 μM ionomycin was made and the maximal BzATP-evoked fluorescence normalized to the maximal ionomycin-evoked fluorescence.
Turning to `COc1cc(Br)c(Nc2nnc3n2C(c2ccccc2)CCC3)cc1OC` (centres unmarked) [Compound 1, (2-Bromo-4,5-dimethoxy-phenyl)-(5-phenyl-5,6,7,8-tetrahydro-[1,2,4]triazolo[4,3-a]pyridin-3-yl)-amine], the negative logarithm of the IC50 (pIC50) is 7.25.

`CCc1c(Nc2nnc3n2C(c2ccc(F)cc2)CCC3)ccc2ncccc12` (centres unmarked) [Compound 2, (5-Ethyl-quinolin-6-yl)-[5-(4-fluoro-phenyl)-5,6,7,8-tetrahydro-[1,2,4]triazolo[4,3-a]pyridin-3-yl]-amine]: the pIC50 is reported as 7.52.

In the case of `COc1cc(C)c(Nc2nnc3n2[C@H](c2ccc(F)cc2)CCC3)cc1OC` [Compound 4, (4,5-Dimethoxy-2-methyl-phenyl)-[(S)-5-(4-fluoro-phenyl)-5,6,7,8-tetrahydro-[1,2,4]triazolo[4,3-a]pyridin-3-yl]-amine], the pIC50 was determined as 7.98.

As for `COc1cc(Br)c(Nc2nnc3n2C(c2ccc(F)cc2)COC3)cc1OC` (centres unmarked) [Compound 5, (2-Bromo-4,5-dimethoxy-phenyl)-[5-(4-fluoro-phenyl)-5,6-dihydro-8H-[1,2,4]triazolo[3,4-c][1,4]oxazin-3-yl]-amine], the pIC50 is 7.775.

For the compound `Cc1cc(Cl)c(OCCO)cc1Nc1nnc2n1C(c1ccc(F)cc1)CCC2` (centres unmarked) [Compound 6, 2-{2-Chloro-5-[5-(4-fluoro-phenyl)-5,6,7,8-tetrahydro-[1,2,4]triazolo[4,3-a]pyridin-3-ylamino]-4-methyl-phenoxy}-ethanol], the pIC50 stood at 6.99.

With `COc1cc(Br)c(Nc2nnc3n2C(c2ccccc2)CC2(C3)OCCO2)cc1OC` (centres unmarked) [Compound 7, (2-Bromo-4,5-dimethoxy-phenyl)-(7,7′-spiro-ethylenedioxy-5-phenyl-5,6,7,8-tetrahydro-[1,2,4]triazolo[4,3-a]pyridin-3-yl)-amine], the pIC50 is recorded as 6.2.

In the case of `CCc1c(Nc2nnc3n2[C@H](c2ccc(F)cc2)CCC3)ccc2ncccc12` [Compound 8, (5-Ethyl-quinolin-6-yl)-[(S)-5-(4-fluoro-phenyl)-5,6,7,8-tetrahydro-[1,2,4]triazolo[4,3-a]pyridin-3-yl]-amine], the pIC50 stood at 7.693.

Take `CCc1c(Nc2nnc3n2[C@@H](c2ccc(F)cc2)CCC3)ccc2ncccc12` [Compound 9, (5-Ethyl-quinolin-6-yl)-[(R)-5-(4-fluoro-phenyl)-5,6,7,8-tetrahydro-[1,2,4]triazolo[4,3-a]pyridin-3-yl]-amine]: the pIC50 is on record as 5.17.

In the case of `COc1cc(Br)c(Nc2nnc3n2C(c2ccc(F)cc2)CSC3)cc1OC` (centres unmarked) [Compound 10, (2-Bromo-4,5-dimethoxy-phenyl)-[5-(4-fluoro-phenyl)-5,6-dihydro-8H-[1,2,4]triazolo[3,4-c][1,4]thiazin-3-yl]-amine], the pIC50 is on record as 7.625.

As to `Cc1ccc2ncccc2c1Nc1nnc2n1[C@H](c1ccccc1)COC2` [Compound 11, (6-Methyl-quinolin-5-yl)-((R)-5-phenyl-5,6-dihydro-8H-[1,2,4]triazolo[3,4-c][1,4]oxazin-3-yl)-amine], the pIC50 is on record as 7.442.

In the case of `COc1cc(Br)c(Nc2nnc3n2[C@@H](c2ccc(F)cc2)COC3)cc1OC` [Compound 12, (2-Bromo-4,5-dimethoxy-phenyl)-[(S)-5-(4-fluoro-phenyl)-5,6-dihydro-8H-[1,2,4]triazolo[3,4-c][1,4]oxazin-3-yl]-amine], the pIC50 was determined as 5.1167.

In the case of `COc1cc(Br)c(Nc2nnc3n2[C@H](c2ccc(F)cc2)COC3)cc1OC` [Compound 13, (2-Bromo-4,5-dimethoxy-phenyl)-[(R)-5-(4-fluoro-phenyl)-5,6-dihydro-8H-[1,2,4]triazolo[3,4-c][1,4]oxazin-3-yl]-amine], the pIC50 is reported as 7.75.

Take `Cc1cc(-c2ccc(C)c(Nc3nnc4n3[C@H](c3ccc(F)cc3)COC4)c2)n[nH]1` [Compound 14, [(R)-5-(4-Fluoro-phenyl)-5,6-dihydro-8H-[1,2,4]triazolo[3,4-c][1,4]oxazin-3-yl]-[2-methyl-5-(5-methyl-1H-pyrazol-3-yl)-phenyl]-amine]: the pIC50 worked out at 7.62.

On to `Cc1cc(Cl)c(OCCO)cc1Nc1nnc2n1[C@H](c1ccc(F)cc1)CCC2` [Compound 15, 2-{2-Chloro-5-[(S)-5-(4-fluoro-phenyl)-5,6,7,8-tetrahydro-[1,2,4]triazolo[4,3-a]pyridin-3-ylamino]-4-methyl-phenoxy}-ethanol], for which the pIC50 is reported as 7.133.

Take `COc1cc(Br)c(Nc2nnc3n2C(c2ccc(F)cc2)C[S+]([O-])C3)cc1OC` (centres unmarked) [Compound 16, (2-Bromo-4,5-dimethoxy-phenyl)-[5-(4-fluoro-phenyl)-7-oxo-5,6,7,8-tetrahydro-7λ^4-[1,2,4]triazolo[3,4-c][1,4]thiazin-3-yl]-amine]: the pIC50 was determined as 7.4167.

As to `COc1cc(Br)c(Nc2nnc3n2C(c2ccc(F)cc2)CNC3)cc1OC` (centres unmarked) [Compound 17, (2-Bromo-4,5-dimethoxy-phenyl)-[5-(4-fluoro-phenyl)-5,6,7,8-tetrahydro-[1,2,4]triazolo[4,3-a]pyrazin-3-yl]-amine], the pIC50 turned out to be 7.3267.

Regarding `Fc1cccc(C2COCc3nnc(Nc4cccc5ncccc45)n32)c1` (centres unmarked) [Compound 20, [5-(3-Fluoro-phenyl)-5,6-dihydro-8H-[1,2,4]triazolo[3,4-c][1,4]oxazin-3-yl]-quinolin-5-yl-amine], the pIC50 turned out to be 6.987.

As for `Cc1cnn(-c2ccc(C)c(Nc3nnc4n3[C@H](c3ccc(F)cc3)COC4)c2)c1` [Compound 22, [(R)-5-(4-Fluoro-phenyl)-5,6-dihydro-8H-[1,2,4]triazolo[3,4-c][1,4]oxazin-3-yl]-[2-methyl-5-(4-methyl-pyrazol-1-yl)-phenyl]-amine], the pIC50 turned out to be 7.855.

Turning to `COc1cc(C)c(Nc2nnc3n2C(C)(c2ccc(F)cc2)COC3)cc1OC` (centres unmarked) [Compound 23, (4,5-Dimethoxy-2-methyl-phenyl)-[5-(4-fluoro-phenyl)-5-methyl-5,6-dihydro-8H-[1,2,4]triazolo[3,4-c][1,4]oxazin-3-yl]-amine], the pIC50 is recorded as 6.9.

`COc1cc(Br)c(Nc2nnc3n2C(c2ccc(F)cc2)CN(C(C)=O)C3)cc1OC` (centres unmarked) [Compound 24, 1-[3-(2-Bromo-4,5-dimethoxy-phenylamino)-5-(4-fluoro-phenyl)-5,6-dihydro-8H-[1,2,4]triazolo[4,3-a]pyrazin-7-yl]-ethanone]: the pIC50 came to 6.945.

In the case of `Cc1ccc2ncccc2c1Nc1nnc2n1C(c1cccc(F)c1)COC2` (centres unmarked) [Compound 25, [5-(3-Fluoro-phenyl)-5,6-dihydro-8H-[1,2,4]triazolo[3,4-c][1,4]oxazin-3-yl]-(6-methyl-quinolin-5-yl)-amine], the pIC50 was 7.735.

With `COc1cc(Br)c(Nc2nnc3n2C(c2ccc(F)cc2)CN(C)C3)cc1OC` (centres unmarked) [Compound 26, (2-Bromo-4,5-dimethoxy-phenyl)-[5-(4-fluoro-phenyl)-7-methyl-5,6,7,8-tetrahydro-[1,2,4]triazolo[4,3-a]pyrazin-3-yl]-amine], the pIC50 is 7.32.

Regarding `Cc1ccc2c(Nc3nnc4n3[C@H](c3ccc(F)cc3)COC4)cccc2n1` [Compound 27, [(R)-5-(4-Fluoro-phenyl)-5,6-dihydro-8H-[1,2,4]triazolo[3,4-c][1,4]oxazin-3-yl]-(2-methyl-quinolin-5-yl)-amine], the pIC50 was 6.76.
